Values joined by “and” are separate entries in the source; they are usually repeats but may differ in a detail not shown here. Equal values may be shown once. Inconclusive results and toxic doses are left out.
Tested on: P388 leukemia ip, CD2F1 mice, survival T/C
Experiment: NCI In Vivo Anticancer Drug Screen. Data for tumor model P388 Leukemia (intraperitoneal) in CD2F1 (CDF1) mice
Details: endpoint: median survival time, higher = longer survival
How it was run: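 Mice carrying the transplanted tumor received test compound or vehicle. Survival was recorded in each group, and the value is the treated-group measurement divided by that of the vehicle-treated control group.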

[1] = dose: 200.0 mg/kg/injection, schedule: Q01DX005 (ip), vehicle: saline with Tween-80
[2] = dose: 50.0 mg/kg/injection, schedule: Q01DX005 (ip), vehicle: Klucel (hydroxypropylcellulose) (HPC)
[3] = dose: 100.0 mg/kg/injection, schedule: Q01DX005 (ip), vehicle: Klucel (hydroxypropylcellulose) (HPC)
[4] = dose: 200.0 mg/kg/injection, schedule: Q01DX005 (ip), vehicle: Klucel (hydroxypropylcellulose) (HPC)
[5] = dose: 100.0 mg/kg/injection, schedule: Q04DX002 (ip), vehicle: saline with Tween-80
[6] = dose: 200.0 mg/kg/injection, schedule: Q04DX002 (ip), vehicle: saline with Tween-80
[7] = dose: 400.0 mg/kg/injection, schedule: Q04DX002 (ip), vehicle: saline with Tween-80
[8] = dose: 50.0 mg/kg/injection, schedule: Q01DX005 (ip), vehicle: saline
[9] = dose: 100.0 mg/kg/injection, schedule: Q01DX005 (ip), vehicle: saline
[10] = dose: 6.25 mg/kg/injection, schedule: Q01DX005 (ip), vehicle: saline
[11] = dose: 25.0 mg/kg/injection, schedule: Q01DX005 (ip), vehicle: saline
[12] = dose: 100.0 mg/kg/injection, schedule: Q04DX003 (ip), vehicle: Klucel (hydroxypropylcellulose) (HPC)
[13] = dose: 200.0 mg/kg/injection, schedule: Q04DX003 (ip), vehicle: Klucel (hydroxypropylcellulose) (HPC)
[14] = dose: 100.0 mg/kg/injection, schedule: Q01DX001 (ip), vehicle: Klucel (hydroxypropylcellulose) (HPC)
[15] = dose: 200.0 mg/kg/injection, schedule: Q01DX001 (ip), vehicle: Klucel (hydroxypropylcellulose) (HPC)
[16] = dose: 12.5 mg/kg/injection, schedule: Q01DX009 (ip), vehicle: water
[17] = dose: 25.0 mg/kg/injection, schedule: Q01DX009 (ip), vehicle: water
[18] = dose: 50.0 mg/kg/injection, schedule: Q01DX009 (ip), vehicle: saline with Tween-80
[19] = dose: 100.0 mg/kg/injection, schedule: Q01DX009 (ip), vehicle: saline with Tween-80
[20] = dose: 200.0 mg/kg/injection, schedule: Q01DX009 (ip), vehicle: saline with Tween-80

In the case of `O=C(O)c1ccccc1NC(=S)Nc1ccccc1C(F)(F)F`, the T/C (dose: 50.0 mg/kg/injection, schedule: Q01DX009 (ip), vehicle: Klucel (hydroxypropylcellulose) (HPC)) is reported as 100 % of control, the T/C (dose: 100.0 mg/kg/injection, schedule: Q01DX009 (ip), vehicle: Klucel (hydroxypropylcellulose) (HPC)) is reported as 96 % of control and the T/C (dose: 200.0 mg/kg/injection, schedule: Q01DX009 (ip), vehicle: Klucel (hydroxypropylcellulose) (HPC)) is reported as 105 % of control.

With `O=C1c2cc3c(-c4ccccc4)oc(-c4ccccc4)c3cc2C(=O)c2c(O)ccc(O)c21` the T/C (dose: 6.25 mg/kg/injection, schedule: Q01DX005 (ip), vehicle: saline with Tween-80) was 94 % of control, the T/C (dose: 12.5 mg/kg/injection, schedule: Q01DX005 (ip), vehicle: saline with Tween-80) was 94 % of control and the T/C (dose: 25.0 mg/kg/injection, schedule: Q01DX005 (ip), vehicle: saline with Tween-80) was 94 % of control. For the same compound, the T/C [1] was 99 % of control.

In the case of `CCOC(=O)Nc1nc2ccc(C(=O)OCC)cc2[nH]1`, the T/C (dose: 100.0 mg/kg/injection, schedule: Q04DX003 (ip), vehicle: saline) is reported as 108 % of control, the T/C (dose: 200.0 mg/kg/injection, schedule: Q04DX003 (ip), vehicle: saline) is reported as 101 % of control and the T/C (dose: 400.0 mg/kg/injection, schedule: Q04DX003 (ip), vehicle: saline) is reported as 108 % of control.

`COC(=O)c1c(-c2cc(OC)c(OC)cc2[N+](=O)[O-])c(C=O)n(C)c1C` was tested, and the T/C (dose: 100.0 mg/kg/injection, schedule: Q01DX001 (ip), vehicle: saline with Tween-80) was 100 % of control, the T/C (dose: 200.0 mg/kg/injection, schedule: Q01DX001 (ip), vehicle: saline with Tween-80) was 99 % of control and the T/C (dose: 400.0 mg/kg/injection, schedule: Q01DX001 (ip), vehicle: saline with Tween-80) was 91 % of control.

With `Nc1ccc(Nc2nc(Cl)nc(Nc3ccc(N)cc3)n2)cc1` the T/C [2] was 98 % of control, the T/C [3] was 90 % of control and the T/C [4] was 90 % of control.

In the case of `CCN(CC)C1=NS(=O)(=O)c2ccccc2C(SC)=C1C`, the T/C [5] is reported as 106 % of control, the T/C [6] is reported as 100 % of control and the T/C [7] is reported as 100 % of control.

For `Cc1ccc(S(=O)(=O)OI(C#CC(C)(C)C)c2ccccc2)cc1`, the T/C (dose: 12.5 mg/kg/injection, schedule: Q01DX005 (ip), vehicle: Klucel (hydroxypropylcellulose) (HPC)) was 102 % of control, the T/C (dose: 25.0 mg/kg/injection, schedule: Q01DX005 (ip), vehicle: Klucel (hydroxypropylcellulose) (HPC)) was 102 % of control and the T/C [2] was 101 % of control and 117 % of control.

In the case of `COC(=O)Nc1ccc(NC(=O)OC)c2c1C(=O)c1ccccc1C2=O`, the T/C [8] is reported as 95 % of control, the T/C [9] is reported as 95 % of control and the T/C (dose: 200.0 mg/kg/injection, schedule: Q01DX005 (ip), vehicle: saline) is reported as 88 % of control.

`Clc1ccc(C2=Nc3ccccc3SC(c3ccco3)C2)cc1Cl` (centres undefined) was tested, and the T/C [5] was 100 % of control, the T/C [6] was 96 % of control and the T/C [7] was 102 % of control.

In the case of `NCCCNCCCCNC(=O)C(O)NC(=O)CC(O)CCCCN=C(N)N` (centres undefined), the T/C [10] is reported as 152 % of control, the T/C [11] is reported as 160 % of control and the T/C [8] is reported as 150 % of control and 154 % of control. For the same compound, the T/C [9] was 156 % of control and 169 % of control.

For `Cc1cc(Cl)cc(S(=O)(=O)O)c1N`, the T/C [12] was 95 % of control, the T/C [13] was 97 % of control and the T/C (dose: 400.0 mg/kg/injection, schedule: Q04DX003 (ip), vehicle: Klucel (hydroxypropylcellulose) (HPC)) was 97 % of control.

With `CC(=O)N1NC(=O)c2c(c3ccccc3n2C)C1c1ccc(C)cc1` (centres undefined) the T/C [14] was 100 % of control, the T/C [15] was 110 % of control and the T/C (dose: 400.0 mg/kg/injection, schedule: Q01DX001 (ip), vehicle: Klucel (hydroxypropylcellulose) (HPC)) was 110 % of control.

`Cc1nn2c(-c3cnns3)nnc2s1` was tested, and the T/C (dose: 50.0 mg/kg/injection, schedule: Q01DX001 (ip), vehicle: Klucel (hydroxypropylcellulose) (HPC)) was 107 % of control, the T/C [14] was 107 % of control and the T/C [15] was 100 % of control.

In the case of `CC1(C)CC[C@]2(C(=O)O)CC[C@]3(C)C(=CC[C@@H]4[C@@]5(C)C[C@H](O)[C@H](O)[C@@](C)(C(=O)O)[C@@H]5CC[C@]43C)[C@@H]2C1`, the T/C (dose: 1.1 mg/kg/injection, schedule: Q01DX005 (ip), vehicle: Klucel (hydroxypropylcellulose) (HPC)) is reported as 91 % of control, the T/C (dose: 2.12 mg/kg/injection, schedule: Q01DX005 (ip), vehicle: Klucel (hydroxypropylcellulose) (HPC)) is reported as 89 % of control and the T/C (dose: 4.25 mg/kg/injection, schedule: Q01DX005 (ip), vehicle: Klucel (hydroxypropylcellulose) (HPC)) is reported as 100 % of control and 91 % of control. For the same compound, the T/C (dose: 8.5 mg/kg/injection, schedule: Q01DX005 (ip), vehicle: Klucel (hydroxypropylcellulose) (HPC)) was 88 % of control and 90 % of control, the T/C (dose: 17.0 mg/kg/injection, schedule: Q01DX005 (ip), vehicle: Klucel (hydroxypropylcellulose) (HPC)) was 92 % of control and 93 % of control and the T/C (dose: 34.0 mg/kg/injection, schedule: Q01DX005 (ip), vehicle: Klucel (hydroxypropylcellulose) (HPC)) was 87 % of control.

`O=[N+]([O-])c1ccc([Se]CCBr)c([N+](=O)[O-])c1` was tested, and the T/C [12] was 101 % of control and the T/C [13] was 101 % of control.

In the case of `COc1ccc2cc3c[n+](C)ccc3cc2c1OC`, the T/C [16] is reported as 118 % of control and the T/C [17] is reported as 112 % of control.

In the case of `S=c1[nH]c2ccccc2[nH]1`, the T/C (dose: 6.25 mg/kg/injection, schedule: Q01DX009 (ip), vehicle: saline) is reported as 98 % of control, the T/C (dose: 12.5 mg/kg/injection, schedule: Q01DX009 (ip), vehicle: saline) is reported as 102 % of control and the T/C (dose: 50.0 mg/kg/injection, schedule: Q01DX009 (ip), vehicle: saline) is reported as 98 % of control.

With `COc1c2c(cc3c1C(O)=CC(=O)C3=O)OCO2` the T/C [2] was 104 % of control, the T/C [3] was 100 % of control and the T/C [4] was 107 % of control.

With `CCCCCC(=O)N1SC(NC(=O)OC)=Nc2ccccc21` the T/C (dose: 50.0 mg/kg/injection, schedule: Q01DX005 (ip), vehicle: acetone) was 102 % of control, the T/C (dose: 100.0 mg/kg/injection, schedule: Q01DX005 (ip), vehicle: acetone) was 107 % of control and the T/C (dose: 200.0 mg/kg/injection, schedule: Q01DX005 (ip), vehicle: acetone) was 107 % of control.

In the case of `O=C(NC1C=Nc2ccc(Cl)cc2NC1=O)c1ccc2ccccc2c1` (centres undefined), the T/C (dose: 60.0 mg/kg/injection, schedule: Q01DX005 (ip), vehicle: Klucel (hydroxypropylcellulose) (HPC)) is reported as 90 % of control, the T/C (dose: 120.0 mg/kg/injection, schedule: Q01DX005 (ip), vehicle: Klucel (hydroxypropylcellulose) (HPC)) is reported as 91 % of control and the T/C (dose: 240.0 mg/kg/injection, schedule: Q01DX005 (ip), vehicle: Klucel (hydroxypropylcellulose) (HPC)) is reported as 92 % of control.

In the case of `COc1ccc2c(N=[N+]=[N-])cc(C)nc2c1`, the T/C (dose: 30.0 mg/kg/injection, schedule: Q01DX005 (ip), vehicle: saline with Tween-80) is reported as 97 % of control and the T/C (dose: 60.0 mg/kg/injection, schedule: Q01DX005 (ip), vehicle: saline with Tween-80) is reported as 100 % of control and 91 % of control.

For `CN1CCc2cc(O)c(O)cc2C1Cc1ccc(O)c(O)c1` (centres undefined), the T/C [18] was 100 % of control and the T/C [19] was 96 % of control.

With `O=[n+]1c2c(n([O-])c3cc(Cl)c(Cl)cc31)CCCCC2` the T/C [18] was 91 % of control, the T/C [19] was 99 % of control and the T/C [20] was 99 % of control.

In the case of `NCCCCC(NC(=O)c1ccccc1)C(=O)O` (centres undefined), the T/C [18] is reported as 98 % of control, the T/C [19] is reported as 100 % of control and the T/C [20] is reported as 104 % of control.

With `C=C1C(=O)OC2C[C@]3(C)C(CC12)C(=C)C(O)C[C@@H]3OC(=O)C(C)CC` (some centres undefined) the T/C (dose: 50.0 mg/kg/injection, schedule: Q01DX005 (ip), vehicle: saline with Tween-80) was 105 % of control, the T/C (dose: 100.0 mg/kg/injection, schedule: Q01DX005 (ip), vehicle: saline with Tween-80) was 103 % of control and the T/C [1] was 111 % of control.

For `COC(=O)C(C)C(O)C(C)N` (centres undefined), the T/C [16] was 107 % of control, the T/C [17] was 118 % of control and the T/C (dose: 50.0 mg/kg/injection, schedule: Q01DX009 (ip), vehicle: water) was 106 % of control. The T/C (dose: 100.0 mg/kg/injection, schedule: Q01DX009 (ip), vehicle: water) was 98 % of control and the T/C (dose: 200.0 mg/kg/injection, schedule: Q01DX009 (ip), vehicle: water) was 100 % of control.

In the case of `C/C=N/NCCC#N`, the T/C [10] is reported as 100 % of control, the T/C (dose: 12.5 mg/kg/injection, schedule: Q01DX005 (ip), vehicle: saline) is reported as 100 % of control and the T/C [11] is reported as 90 % of control.

Source: PubChem BioAssay AID330 (DTP/NCI, 2004)
